Calls of active or inactive are those of the source. The rule behind the calls is not given here.

Data set [1] has as its system B16-F10. Description: Cytotoxicity against mouse B16-F10 cells assessed as reduction in cell viability at 1.5 uM incubated for 24 hrs by alamarblue staining based assay relative to control. The class given is functional. (In general: The colour change of resazurin is a common sign of viable cells or microbes.)
For data set [2], the system named is B16-F10. Description: Cytotoxicity against mouse B16-F10 cells assessed as reduction in cell viability at 8.31 uM incubated for 24 hrs by alamarblue staining based assay relative to control. The class given is functional.
Data set [3] relates to B16-F10. Description: Cytotoxicity against mouse B16-F10 cells assessed as cell death by measuring increase in red fluorescence at 0.5 to 10 uM by calcein AM/PI staining based confocal laser scanning microscopy analysis. The class given is functional. To be noted: dose 0.5-10 µM.
In data set [4] the test system is B16-F10. Briefly: Induction of apoptosis in mouse B16-F10 cells assessed as viable cells at 5 uM measured after 48 hrs by Annexin V-FITC/7-AAD staining based flow cytometric analysis relative to control. The class given is functional. The settings on record: read-out: Activity. Background: In flow cytometry, cells or beads pass a laser one at a time.
The subject of data set [5] is B16-F10. Briefly: Induction of apoptosis in mouse B16-F10 cells assessed as viable cells at 20 uM measured after 48 hrs by Annexin V-FITC/7-AAD staining based flow cytometric analysis relative to control. The class given is functional. The settings on record: read-out: Activity.
The test system of data set [6] is B16-F10. Briefly: Antitumor activity against metastatic mouse B16-F10 cells implanted in C57BL/6 mouse assessed as number of lung metastases at 9 to 9.5 mg/kg, ip administered for 15 days by histological analysis (reference value: 175 +/- 10). To be noted: dose 9-9.5 mg/kg, time 15 day. The class given is functional.
Data set [7] has as its system B16-F10. Briefly: Antitumor activity against metastatic mouse B16-F10 cells implanted in C57BL/6 mouse assessed as number of lung metastases at 9 to 9.5 mg/kg, ip administered for 22 days by histological analysis (reference value: 223 +/- 12). The class given is functional. To be noted: dose 9-9.5 mg/kg, time 22 day.
The nature of data set [8]: Toxicity in C57BL/6 mouse implanted with mouse B16-F10 cells assessed as spleen damage at 4.6 to 42 mg/kg, ip by H and E staining based analysis. The class given is organism-based. To be noted: in vivo, dose 4.6-42 mg/kg.
Data set [9] is described as follows: Toxicity in C57BL/6 mouse implanted with mouse B16-F10 cells assessed as kidney damage at 9 to 9.5 mg/kg, ip by H and E staining based analysis. The class given is organism-based. To be noted: in vivo, dose 9-9.5 mg/kg.
Data set [10] concerns B16-F10. Briefly: Cytotoxicity against mouse B16-F10 cells assessed as reduction in cell viability at 5.5 uM incubated for 24 hrs by alamarblue staining based assay relative to control. The class given is functional.
Data set [11] relates to B16-F10. Description: Cytotoxicity against mouse B16-F10 cells assessed as reduction in cell viability at 0.2 to 1.5 uM incubated for 24 hrs by alamarblue staining based assay relative to control. The class given is functional. To be noted: dose 0.2-1.5 µM.
Data set [12] concerns B16-F10. Briefly: Cytotoxicity against mouse B16-F10 cells assessed as reduction in cell viability at 8.3 uM incubated for 24 hrs by alamarblue staining based assay relative to control. The class given is functional.

Regarding `CCOC(=O)c1c(NC(=C\C(=O)c2ccc(OC)cc2)/C([O-])=C(\C#N)C(N)=O)sc2c1CCCC2.[K+]`, the Activity is given as ~80% in the data set with B16-F10 [1]; 20% with B16-F10 [2]; 94 in the data set on B16-F10 [6]; 21 in the data set with B16-F10 [7]; “Non-Toxic” in [8]; “Non-Toxic” in [9]. Also, the outcome with B16-F10 [3] was Active. In addition, in the data set with B16-F10 [4], the viability at 5 µM is 5.8%. The viability at 20 µM in the data set on B16-F10 [5] was determined as 0.3%.

For the molecule `COc1ccc(C(=O)/C=C2\C(=O)C(C#N)=C3NC(=O)c4c(sc5c4CCCCC5)N32)cc1`, the Activity was 20% with B16-F10 [10]; 90% in the data set with B16-F10 [11]; 120 in the data set with B16-F10 [6]; 75 in the data set on B16-F10 [7]; “Non-Toxic” in data set [8]; “Non-Toxic” in data set [9]. Further, the result in the data set with B16-F10 [3] was Active. For the same molecule, the viability at 5 µM in the data set with B16-F10 [4] turned out to be 63.2%. For the same molecule, the viability at 20 µM in the data set with B16-F10 [5] is 0.2%.

On to `CCOC(=O)c1c(N2C(N)=C(C#N)C(=O)/C2=C\C(=O)c2ccc(C)cc2)sc2c1CCCCC2`, for which the Activity with B16-F10 [10] is listed as 20%; in the data set on B16-F10 [12], 48%; with B16-F10 [11], 40%; with B16-F10 [6], 105; in the data set on B16-F10 [7], 40; in [8] it was “Non-Toxic”. In [9], the Activity result is given as “Non-Toxic”. Also, the outcome in the data set with B16-F10 [3] was Active. Moreover, in the data set with B16-F10 [4], the viability at 5 µM stood at 35.4%. Also, in the data set on B16-F10 [5], the viability at 20 µM stood at 0.2%.

Source of the values: ChEMBL document CHEMBL5325431, “Synthesis of thieno[3,2-e]pyrrolo[1,2-a]pyrimidine derivatives and their precursors containing 2-aminothiophenes fragments as anticancer agents for therapy of pulmonary metastatic melanoma” (Eur J Med Chem, 2023).
